In assay [1] the target is BCL6 BTB domain (biotin-thrombin-BCL6 amino acids 1-129) (Homo sapiens (Human), UniProt P41182). Kind of assay: Surface Plasmon Resonance (SPR) assay. The class given is binding. The following applies: Biacore T200, single cycle kinetic analysis. The method, then: Surface Plasmon Resonance (SPR) Assay
SPR studies were performed using a Biacore™ T200 instrument (GE Health Sciences Inc.). […] The Biacore flow rate was set at 100 μl/min. […] Curve fitting and KD calculations were performed with the Biacore T200 Evaluation software (GE Health Sciences Inc).

Assay [2] relates to Karpas422 cells. Put plainly: Tumor cell growth inhibition assay. The conditions noted are these: Homo sapiens, KARPAS-422, 144 h, read-out: GI Karpas EC50. The assay is classed as cell-based. An outline of the steps:
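Karpas422 cells were dosed over a 10-point concentration range (top 5 μM) and grown 6 days at 37 °C, 5% CO2, in Alpha-MEM with 10% FBS. Viability was read as ATPlite luminescence.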

Assay [3] deals with BCL6 reporter construct in SuDHL4-3×BCL6-TK-Luc cells. Kind of assay: Cell-based luciferase assay (BCL6 reporter). The following applies: 48 h, read-out: Luc IC50. In short, it runs like this: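 SuDHL4 cells stably carrying a 3×BCL6-site TK-promoter firefly luciferase reporter, 15,000 cells/well, dosed over 10 concentrations (top 10 μM) and cultured two days at 37° C, 5% CO2. Luciferase luminescence read after room-temperature equilibration with neolite reagent.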

Where [4] appears, read: Karpas422 cells, six days, ATPlite.
[5] abbreviates: SuDHL4-3×BCL6-TK-Luc cells, two days.

Where two headings read alike, the source gives them in different places.

By Kd is commonly meant the free concentration of one partner at which half of the binding sites on the other are occupied at equilibrium, for simple one-to-one binding. High values mean weaker binding, low ones tighter binding. One may read the EC50 as the concentration giving half of the maximal effect. What is called IC50 is the concentration needed to halve the response being measured. In assay [1], `CCN1CCN(c2cc(NC(=O)Cn3cc(-c4cc(C(N)=O)c(O)c(F)c4F)c4c(=O)n5c(nc43)CCCC5)c(Cl)c(F)n2)[C@@H](C)C1` [I-43, (S)-5-(1-(2-((3-chloro-6-(4-ethyl-2-methyl-piperazin-1-yl)-2-fluoropyridin-4-yl)amino)-2-oxoethyl)-4-oxo-1,4,6,7,8,9-hexahydropyrido [1,2-a]pyrrolo[2,3-d]pyrimidin-3-yl)-3,4-difluoro-2-hydroxy-benzamide] returned a Kd of 0.0428 µM. Moreover, the EC50 in assay [2] (setting [4]) was determined as 0.24 µM. The IC50 in assay [3] (setting [5]) stood at 0.232 µM.

For the molecule `C[C@H]1CN(C)CCN1c1cc(NC(=O)Cn2cc(-c3cc(F)c(O)c(C(N)=O)c3)c3c(=O)n4c(nc32)CC(C)(C)C4)c(Cl)c(F)n1` [I-79, (S)-5-(1-(2-((3-chloro-6-(2,4-dimethyl-piperazin-1-yl)-2-fluoropyridin-4-yl)amino)-2-oxoethyl)-7,7-dimethyl-4-oxo-4,6,7,8-tetrahydro-1H-dipyrrolo[1,2-a:2′,3′-d]pyrimidin-3-yl)-3-fluoro-2-hydroxy-benzamide], in assay [1], binding was characterised by a dissociation constant (Kd) of 0.00279 µM. The EC50 in assay [2] (setting [4]) is 0.0398 µM. Moreover, the IC50 in assay [3] (setting [5]) worked out at 0.0352 µM.

As to `NC(=O)c1cc(-c2cn(CC(=O)Nc3cc(N4CCCC4)nc(F)c3Cl)c3nc4n(c(=O)c23)CCC4)cc(Cl)c1O` [I-74, 3-chloro-5-(1-(2-((3-chloro-2-fluoro-6-(pyrrolidin-1-yl)pyridin-4-yl)amino)-2-oxo-ethyl)-4-oxo-4,6,7,8-tetrahydro-1H-dipyrrolo [1,2-a:2′,3′-d]pyrimidin-3-yl)-2-hydroxy-benzamide], the Kd in assay [1] was found to be 0.0148 µM. The EC50 in assay [2] (setting [4]) came out at 0.21 µM. Moreover, the IC50 in assay [3] (setting [5]) was found to be 0.148 µM.

The molecule `CCN1CCN(c2cc(NC(=O)Cn3cc(-c4cc(F)c(O)c(C(N)=O)c4)c4c(=O)n5c(nc43)CCC5)c(Cl)c(F)n2)[C@@H](C)C1` [I-81, (S)-5-(1-(2-((3-chloro-6-(4-ethyl-2-methyl-piperazin-1-yl)-2-fluoropyridin-4-yl)amino)-2-oxoethyl)-4-oxo-4,6,7,8-tetrahydro-1H-dipyrrolo[1,2-a:2′,3′-d]pyrimidin-3-yl)-3-fluoro-2-hydroxy-benzamide] had a Kd in assay [1] of 0.00155 µM. Moreover, the EC50 in assay [2] (setting [4]) amounted to 0.0313 µM. In addition, the IC50 in assay [3] (setting [5]) was 0.0283 µM.

Turning to `CC1Cc2nc3c(c(-c4cc(Cl)c(O)c(C(N)=O)c4)cn3CC(=O)Nc3cc(N4CCOC[C@@H]4C)nc(F)c3Cl)c(=O)n2C1` (stereo partly drawn) [I-66, 3-chloro-5-(1-(2-((3-chloro-2-fluoro-6-((S)-3-methylmor-pholino)pyridin-4-yl)amino)-2-oxo-ethyl)-7-methyl-4-oxo-4,6,7,8-tetra-hydro-1H-dipyrrolo [1,2-a:2′,3′-d]pyrimi-din-3-yl)-2-hydroxy-benzamide], the Kd in assay [1] came out at 0.0159 µM. In addition, the EC50 in assay [2] (setting [4]) came to 0.0742 µM. The IC50 in assay [3] (setting [5]) was 0.186 µM.

For `COCCN1CCN(c2cc(NC(=O)Cn3cc(-c4cc(F)c(O)c(C(N)=O)c4)c4c(=O)n5c(nc43)CCC5)c(Cl)c(F)n2)[C@@H](C)C1` [I-77, (S)-5-(1-(2-((3-chloro-2-fluoro-6-(4-(2-methoxyethyl)-2-methylpiperazin-1-yl)pyridin-4-yl)amino)-2-oxoethyl)-4-oxo-4,6,7,8-tetrahydro-1H-dipyrrolo[1,2-a:2′,3′-d]pyrimidin-3-yl)-3-fluoro-2-hydroxy-benzamide], the Kd in assay [1] is 0.00142 µM. Besides, the EC50 in assay [2] (setting [4]) came out at 0.0207 µM. Besides, the IC50 in assay [3] (setting [5]) was found to be 0.0274 µM.

In the case of `C[C@H]1CN(CC2CC2)CCN1c1cc(NC(=O)Cn2cc(-c3cc(C(N)=O)c(O)c(F)c3F)c3c(=O)n4c(nc32)CCCC4)c(Cl)c(F)n1` [I-45, (S)-5-(1-(2-((3-chloro-6-(4-(cyclopropyl-methyl)-2-methyl-piperazin-1-yl)-2-fluoropyridin-4-yl)amino)-2-oxoethyl)-4-oxo-1,4,6,7,8,9-hexahydropyrido [1,2-a]pyrrolo[2,3-d]pyrimidin-3-yl)-3,4-difluoro-2-hydroxy-benzamide], binding in assay [1] was characterised by a dissociation constant (Kd) of 0.0318 µM. Further, the EC50 in assay [2] came out at 1.33 µM. In addition, the IC50 in assay [3] came out at 0.469 µM.

On to `C[C@H]1CN(C)CCN1c1cc(NC(=O)Cn2cc(-c3cc(C(N)=O)c(O)c(F)c3F)c3c(=O)n4c(nc32)CC(C)(C)C4)c(Cl)c(F)n1` [I-57, (S)-5-(1-(2-((3-chloro-6-(2,4-dimethyl-piperazin-1-yl)-2-fluoropyridin-4-yl)amino)-2-oxoethyl)-7,7-dimethyl-4-oxo-4,6,7,8-tetrahydro-1H-dipyrrolo[1,2-a:2′,3′-d]pyrimidin-3-yl)-3,4-difluoro-2-hydroxy-benzamide], for which, in assay [1], binding was put at a Kd of 0.0112 µM. In assay [2], the EC50 amounted to 0.0621 µM. Besides, the IC50 in assay [3] came out at 0.114 µM.

For the molecule `COc1c(-c2cn(CC(=O)Nc3cc(N4CCN(C)C[C@@H]4C)nc(F)c3Cl)c3nc4n(c(=O)c23)CCC4)cc(C(N)=O)c(O)c1Cl` [I-95, (S)-3-chloro-5-(1-(2-((3-chloro-6-(2,4-dimethylpiperazin-1-yl)-2-fluoropyridin-4-yl)amino)-2-oxo-ethyl)-4-oxo-4,6,7,8-tetrahydro-1H-dipyrrolo[1,2-a:2′,3′-d]pyrimidin-3-yl)-2-hydroxy-4-methoxy-benzamide], in assay [1], the Kd was 0.45 µM. Besides, in assay [2], the EC50 was found to be 0.879 µM. The IC50 in assay [3] stood at 0.993 µM.

Turning to `CN1CCN(c2ccc(Cl)c(NC(=O)Cn3cc(-c4cc(C(N)=O)c(O)c(F)c4F)c4c(=O)n5c(nc43)CCC5)c2)CC1` [I-32, 5-(1-(2-((2-chloro-5-(4-methylpiperazin-1-yl)phenyl)amino)-2-oxo-ethyl)-4-oxo-4,6,7,8-tetrahydro-1H-dipyrrolo [1,2-a:2′,3′-d]pyrimidin-3-yl)-3,4-difluoro-2-hydroxybenzamide], the Kd in assay [1] is 0.261 µM. Also, in assay [2] (setting [4]), the EC50 stood at 1.34 µM. For the same molecule, in assay [3] (setting [5]), the IC50 turned out to be 3.58 µM.

`C[C@H]1CN(C)CCN1c1cc(NC(=O)Cn2cc(-c3cc(C(N)=O)c(O)c(F)c3F)c3c(=O)n4c(nc32)COCC4)c(Cl)c(F)n1` [I-33, (S)-5-(1-(2-((3-chloro-6-(2,4-dimethylpiperazin-1-yl)-2-fluoropyridin-4-yl)amino)-2-oxoethyl)-4-oxo-4,6,7,9-tetrahydro-1H-pyrrolo[2′,3′:4,5]pyrimido[2,1-c][1,4]oxazin-3-yl)-3,4-difluoro-2-hydroxybenzamide]: in assay [1], the Kd came out at 0.011 µM. Further, the EC50 in assay [2] was 0.214 µM. Besides, in assay [3], the IC50 worked out at 0.149 µM.

With `C[C@H]1COCCN1c1cc(NC(=O)Cn2cc(-c3cc(C(N)=O)c(O)c(Cl)c3F)c3c(=O)n4c(nc32)CCC4)c(Cl)c(F)n1` [I-11, (S)-3-chloro-5-(1-(2-((3-chloro-2-fluoro-6-(3-methylmorpholino)pyridin-4-yl)amino)-2-oxoethyl)-4-oxo-4,6,7,8-tetrahydro-1H-dipyrrolo [1,2-a:2′,3′-d]pyrimidin-3-yl)-4-fluoro-2-hydroxybenzamide], the Kd in assay [1] came out at 0.112 µM. Besides, the EC50 in assay [2] (setting [4]) was found to be 1.9 µM. For the same molecule, in assay [3] (setting [5]), the IC50 is 0.988 µM.

In turn, `C[C@H]1COCCN1c1cc(NC(=O)Cn2cc(-c3cc(Cl)c(O)c(C(N)=O)c3)c3c(=O)n4c(nc32)CCC4)c(Cl)cn1` [I-2, (S)-3-chloro-5-(1-(2-((5-chloro-2-(3-methyl-morpholino)pyridin-4-yl)amino)-2-oxoethyl)-4-oxo-4,6,7,8-tetra-hydro-1H-dipyrrolo [1,2-a:2′,3′-d]pyrimidin-3-yl)-2-hydroxy-benzamide] displayed a Kd in assay [1] of 0.00448 µM. For the same molecule, the EC50 in assay [2] (setting [4]) worked out at 0.304 µM. The IC50 in assay [3] (setting [5]) was 0.095 µM.

In assay [1], `C[C@H]1COCCN1c1cc(NC(=O)Cn2cc(-c3cc(C(N)=O)c(O)c(F)c3F)c3c(=O)n4c(nc32)CCC4)c(Cl)cn1` [I-3, (S)-5-(1-(2-((5-chloro-2-(3-methylmorpho-lino)pyridin-4-yl)amino)-2-oxoethyl)-4-oxo-4,6,7,8-tetrahydro-1H-dipyrrolo[1,2-a:2′,3′-d]pyrimidin-3-yl)-3,4-difluoro-2-hydroxy-benzamide] registered a Kd of 0.0252 µM. Besides, in assay [2] (setting [4]), the EC50 is 0.502 µM. Moreover, the IC50 in assay [3] (setting [5]) turned out to be 0.708 µM.

With `CCN1CCN(c2cc(NC(=O)Cn3cc(-c4cc(C(N)=O)c(O)c(F)c4F)c4c(=O)n5c(nc43)CCC5)c(Cl)c(F)n2)[C@@H](C)C1` [I-23, (S)-5-(1-(2-((3-chloro-6-(4-ethyl-2-methyl-piperazin-1-yl)-2-fluoro-pyridin-4-yl)amino)-2-oxoethyl)-4-oxo-4,6,7,8-tetrahydro-1H-dipyrrolo [1,2-a:2′,3′-d]pyrimidin-3-yl)-3,4-difluoro-2-hydroxybenzamide], in assay [1], the Kd came out at 0.00797 µM. Besides, the EC50 in assay [2] (setting [4]) was 0.102 µM. For the same molecule, in assay [3] (setting [5]), the IC50 turned out to be 0.0915 µM.

With `C[C@H]1CN(CC2CC2)CCN1c1cc(NC(=O)Cn2cc(-c3cc(C(N)=O)c(O)c(F)c3F)c3c(=O)n4c(nc32)CCC4)c(Cl)cn1` [I-6, (S)-5-(1-(2-((5-chloro-2-(4-(cyclopropylmethyl)-2-methylpiperazin-1-yl)pyridin-4-yl)amino)-2-oxoethyl)-4-oxo-4,6,7,8-tetrahydro-1H-dipyrrolo[1,2-a:2′,3′-d]pyrimidin-3-yl)-3,4-difluoro-2-hydroxy-benzamide], in assay [1], the Kd was determined as 0.0259 µM. Besides, in assay [2] (setting [4]), the 50% effective concentration (EC50) is 0.997 µM. The IC50 in assay [3] (setting [5]) is 0.306 µM.

(Values after patent US11242351B2, “Tricyclic inhibitors of the BCL6 BTB domain protein-protein interaction and uses thereof” (priority 2017, dated 2022).)
